This is an account of results in US20230416202A1, “Small Molecule Compounds and Compositions” (Telo Therapeutics, Inc., priority 2020, published 2023).

Assay type in all cases: cell-based, human
One test concerns Mutant TERT. Put plainly: HepG2 hTERT mRNA assay (qPCR). The note with it: HepG2 cells (mutated TERT), 48 hours, TERT mRNA via qPCR. How it is done: (§1) HepG2 cells (hepatocyte carcinoma (HCC) cells; with mutated TERT) or HEK293T cells (with wild type (wt) TERT) were seeded at 4,000 cells/well in 96-well plates. The following day, test compounds were added to cells for at concentrations of 25 uM, 12.5 uM, 6.25 uM, 3.125 uM, 1.563 uM, 0.781 uM, 0.391 uM, 0.195 uM, 0.098 uM or vehicle control (0.1% DMSO). Each condition was tested in three replicate wells. 48 hours post drug addition, the cells were harvested for RNA using the 96-Magmax RNA Isolation kit (Cat. No. AM1830). RNA was converted to cDNA using the Superscript III First strand cDNA synthesis kit (Cat. No. 18080051). RNA and cDNA concentration and quality were determined using the NanoQuant nucleic acid quantification method. 500 ng cDNA from each sample was used to detect TERT mRNA via qPCR. GUSB was also measured as an internal control and fold change to vehicle control was determined using the delta CT method.
In general terms: Real-time PCR tracks product formation cycle by cycle.

The next test relates to wt TERT. Put plainly: HEK293T hTERT mRNA assay (qPCR). On the procedure: as §1
The test system of the next test is HepG2 cells. Put plainly: HepG2 cytostatic.
The test system of the next test is HEK293 cells. Put plainly: HEK293 cytostatic. The note with it: for IC50: read-out: wt Tert IC50 uM HEK293 cytostatic.
Setting [1] is: Homo sapiens, HEK-293T, wild type TERT, read-out: wt TERT IC50.
[2] abbreviates: Homo sapiens, HEK293 cells (wt TERT), 48 hours, class symbols, read-out: wt TERT IC50 uM HEK293.
[3] abbreviates: Homo sapiens, HEK293, HEK293 cells.

SMILES strings stand for the structures. Read-outs that look alike come from different tables or passages of the source.

What is called IC50 is the midpoint of a concentration-inhibition curve. For `O=C(O)CC1CC(c2ccc(C(F)(F)F)cc2)CN(Cc2ccc(C(F)(F)F)cc2)C1` (racemic) [Compound 100, rac-2-((anti)-1-(4-(trifluoromethyl)benzyl)-5-(4-(trifluoromethyl)phenyl)piperidin-3-yl)acetic acid], the IC50 is 0.5 to 5 µM in the test on Mutant TERT (Homo sapiens), > 25 µM with wt TERT (setting [1]) and > 25 µM in the test with wt TERT (setting [2]). Also, the “Cytostatic IC50 uM HepG2 cytostatic” value with HepG2 cells was ““++”-“+””. In addition, the “wt Tert IC50 uM HEK293 cytostatic” value in the test with HEK293 cells (HEK293 cells) was ““++”-“+””.
Regarding `COc1cccc([C@H]2C[C@H](CC(=O)O)CN(Cc3ccc(C(F)(F)F)cc3)C2)c1` (racemic) [Compound 103, 2-((anti)-5-(3-methoxyphenyl)-1-(4-(trifluoromethyl)benzyl)piperidin-3-yl)acetic acid], the half-maximal inhibitory concentration (IC50) is > 25 µM with Mutant TERT (Homo sapiens); > 25 µM in the test on wt TERT (setting [1]); > 25 µM in the test with wt TERT (setting [2]); 5 to 25 µM in the test on HepG2 cells (Homo sapiens); 5 to 25 µM in the test with HEK293 cells (setting [3]).
As for `O=C(O)C[C@H]1C[C@H](c2cccc(C(F)(F)F)c2)CN(Cc2ccc(C(F)(F)F)cc2)C1` (racemic) [Compound 104, rac-2-((anti)-1-(4-(trifluoromethyl)benzyl)-5-(3-(trifluoromethyl)phenyl)piperidin-3-yl)acetic acid], the IC50 in the test with wt TERT (setting [1]) is > 25 µM; in the test with wt TERT (setting [2]), > 25 µM; with HepG2 cells (Homo sapiens) it was 5 to 25 µM; with HEK293 cells (setting [3]), 5 to 25 µM.
Regarding `COc1ccc([C@H]2C[C@H](CC(=O)O)CN(Cc3ccc(C(F)(F)F)cc3)C2)cc1` (racemic) [Compound 105, 2-((anti)-5-(4-methoxyphenyl)-1-(4-(trifluoromethyl)benzyl)piperidin-3-yl)acetic acid], the half-maximal inhibitory concentration (IC50) is 0.5 to 5 µM in the test with Mutant TERT (Homo sapiens); > 25 µM with wt TERT (setting [1]); > 25 µM in the test on wt TERT (setting [2]); 5 to 25 µM in the test with HepG2 cells (Homo sapiens); 5 to 25 µM with HEK293 cells (setting [3]).
With `COc1cc([C@H]2C[C@H](CC(=O)O)CN(Cc3ccc(C(F)(F)F)cc3)C2)cc(C(F)(F)F)c1` (racemic) [Compound 106, rac-2-((anti)-5-(3-methoxy-5-(trifluoromethyl)phenyl)-1-(4-(trifluoromethyl)benzyl)piperidin-3-yl)acetic acid], the IC50 in the test with Mutant TERT (Homo sapiens) is 0.5 to 5 µM; in the test with wt TERT (setting [1]) it was > 25 µM; in the test with wt TERT (setting [2]), > 25 µM; in the test on HepG2 cells (Homo sapiens) it was 0.5 to 5 µM; in the test with HEK293 cells (setting [3]), 5 to 25 µM.
Take `C#Cc1ccc([C@H]2C[C@H](CC(=O)O)CN(Cc3ccc(C4(C(F)(F)F)N=N4)cc3)C2)cc1` (racemic) [Compound 136, Anti-2-(5-(4-ethynylphenyl)-1-(4-(3-(trifluoromethyl)-3H-diazirin-3-yl)benzyl)piperidin-3-yl)acetic acid]: the IC50 with Mutant TERT (Homo sapiens) was 0.5 to 5 µM.
On to `C#Cc1ccc([C@H]2C[C@H](CC(=O)O)CN(Cc3ccc(N=[N+]=[N-])cc3)C2)cc1` (racemic) [Compound 137, Anti-2-(1-(4-azidobenzyl)-5-(4-ethynylphenyl)piperidin-3-yl)acetic acid], for which, in the test on Mutant TERT (Homo sapiens), the IC50 was in the range of 0.5 to 5 µM.
`O=C(O)C[C@H]1C[C@H](c2ccc(C(F)(F)F)cc2)CN(Cc2ccccc2)C1` (racemic) [Compound 138, Anti-2-(1-benzyl-5-(4-(trifluoromethyl)phenyl)piperidin-3-yl)acetic acid] had an IC50 in the test with Mutant TERT (Homo sapiens) of 0.5 to 5 µM.
In turn, `N#Cc1cc(CN2C[C@H](CC(=O)O)C[C@@H](c3ccc(C(F)(F)F)cc3)C2)ccc1Cl` (racemic) [Compound 140, Anti-2-(1-(4-chloro-3-cyanobenzyl)-5-(4-(trifluoromethyl)phenyl)piperidin-3-yl)acetic acid] gave an IC50 in the test on Mutant TERT (Homo sapiens) of 0.5 to 5 µM.
`O=C(O)C[C@H]1C[C@H](c2ccc(C(F)(F)F)cc2)CN(Cc2ccc3ccccc3c2)C1` (racemic) [Compound 141, Anti-2-(1-(naphthalen-2-ylmethyl)-5-(4-(trifluoromethyl)phenyl)piperidin-3-yl)acetic acid] yielded an IC50 in the test on Mutant TERT (Homo sapiens) of 0.5 to 5 µM.
Still for that read-out and setting: the same measure for `O=C(O)C[C@H]1C[C@H](c2cccc(Cl)c2)CN(Cc2ccc(C(F)(F)F)cc2)C1` (racemic) [Compound 143, Anti-2-(5-(3-chlorophenyl)-1-(4-(trifluoromethyl)benzyl)piperidin-3-yl)acetic acid]: 5 to 25 µM.
Take `CC(C(=O)O)[C@@H]1C[C@@H](c2ccc(C(F)(F)F)cc2)CN(Cc2ccc(C(F)(F)F)cc2)C1` (single isomer, unassigned) [Compound 114]: the IC50 is > 25 µM in the test on wt TERT (HEK293 cells (wt TERT), 48 hours, class symbols, read-out: wt TERT IC50 uM HEK293); > 25 µM in the test with wt TERT (wild type TERT, read-out: wt TERT IC50); 0.5 to 5 µM with HepG2 cells; 0.5 to 5 µM in the test with HEK293 cells (HEK293 cells).
For `O=C(O)C[C@@H]1C[C@@H](c2ccc(Cl)cc2)CN(Cc2ccc(C(F)(F)F)cc2)C1` (single isomer, unassigned) [Compound 142], in the test on Mutant TERT (Homo sapiens), the IC50 was < 0.5 µM.
Still for that read-out and setting: the same measure for `C#Cc1ccc(CN2C[C@H](CC(=O)O)C[C@@H](c3ccc(N=[N+]=[N-])cc3)C2)cc1` (single isomer, unassigned) [Compound 144]: 0.5 to 5 µM.
The molecule `[N-]=[N+]=NCc1ccc(CN2C[C@H](CC(=O)O)C[C@@H](c3ccc(N=[N+]=[N-])cc3)C2)cc1` (single isomer, unassigned) [Compound 145] registered an IC50 in the test with Mutant TERT (Homo sapiens) of 0.5 to 5 µM.
As to `C#Cc1ccc([C@@H]2C[C@@H](CC(=O)O)CN(Cc3ccc(C4(C(F)(F)F)N=N4)cc3)C2)cc1` (single isomer, unassigned) [Compound 146], the IC50 in the test with Mutant TERT (Homo sapiens) fell in the range of 0.5 to 5 µM.
Turning to `COc1cc(CN2C[C@H](CC(=O)O)C[C@@H](c3ccc(C(F)(F)F)cc3)C2)cc(C(F)(F)F)c1` [Compound 108, 2-((3S,5S)-1-(3-methoxy-5-(trifluoromethyl)benzyl)-5-(4-(trifluoromethyl)phenyl)piperidin-3-yl)acetic acid], the half-inhibitory concentration (IC50) in the test on Mutant TERT (Homo sapiens), with wt TERT (setting [1]), in the test with wt TERT (setting [2]) and with HepG2 cells (Homo sapiens) was > 25 µM in each case.
Regarding `COc1cccc(CN2C[C@H](CC(=O)O)C[C@@H](c3ccc(C(F)(F)F)cc3)C2)c1` [Compound 110, 2-((3S,5S)-1-(3-methoxybenzyl)-5-(4-(trifluoromethyl)phenyl)piperidin-3-yl)acetic acid], the IC50 in the test with Mutant TERT (Homo sapiens), in the test with wt TERT (setting [1]) and in the test with wt TERT (setting [2]) was > 25 µM each time.
On to `O=C(O)C[C@@H]1C[C@@H](c2ccc(C(F)(F)F)cc2)CN(Cc2cccc(C(F)(F)F)c2)C1` [Compound 111, 2-((3S,5S)-1-(3-(trifluoromethyl)benzyl)-5-(4-(trifluoromethyl)phenyl)piperidin-3-yl)acetic acid], for which the IC50 was < 0.5 µM in the test with Mutant TERT (Homo sapiens), > 25 µM in the test with wt TERT (setting [1]) and > 25 µM in the test with wt TERT (setting [2]).
In the test on Mutant TERT (Homo sapiens), `O=C(O)C[C@@H]1C[C@@H](c2ccc(C(F)(F)F)cc2)CN(Cc2ccc(Cl)cc2)C1` [Compound 116, 2-((3S,5S)-1-(4-chlorobenzyl)-5-(4-(trifluoromethyl)phenyl)piperidin-3-yl)acetic acid] returned a 50% inhibitory concentration (IC50) of 0.5 to 5 µM.
The same measure, in the same setting: the same measure for `O=C(O)C[C@@H]1C[C@@H](c2ccc(C(F)(F)F)cc2)CN(Cc2ccc(F)cc2)C1` [Compound 117, 2-((3S,5S)-1-(4-fluorobenzyl)-5-(4-(trifluoromethyl)phenyl)piperidin-3-yl)acetic acid]: 0.5 to 5 µM.
The same measure, in the same setting: the figure for `O=C(O)C[C@@H]1C[C@@H](c2ccc(C(F)(F)F)cc2)CN(Cc2ccc(F)c(F)c2)C1` [Compound 118, 2-((3S,5S)-1-(3,4-difluorobenzyl)-5-(4-(trifluoromethyl)phenyl)piperidin-3-yl)acetic acid] is < 0.5 µM; for `O=C(O)C[C@@H]1C[C@@H](c2ccc(C(F)(F)F)cc2)CN(Cc2ccccc2F)C1` [Compound 119, 2-((3S,5S)-1-(2-fluorobenzyl)-5-(4-(trifluoromethyl)phenyl)piperidin-3-yl)acetic acid] it is 0.5 to 5 µM; for `CS(=O)(=O)c1ccc(CN2C[C@H](CC(=O)O)C[C@@H](c3ccc(C(F)(F)F)cc3)C2)cc1` [Compound 120, 2-((3S,5S)-1-(4-(methylsulfonyl)benzyl)-5-(4-(trifluoromethyl)phenyl)piperidin-3-yl)acetic acid] it is 0.5 to 5 µM.
On the same count and under the same terms, the figure for `O=C(O)CC[C@H]1C[C@H](c2ccc(C(F)(F)F)cc2)CN(Cc2ccc(C(F)(F)F)cc2)C1` [Compound 126, Anti-3-(1-(4-(trifluoromethyl)benzyl)-5-(4-(trifluoromethyl)phenyl)piperidin-3-yl)propanoic acid] is 0.5 to 5 µM.
In the test on Mutant TERT, `O=C(O)CC1CC(c2ccc(C(F)(F)F)cc2)CN(Cc2ccc(C(F)(F)F)cc2)C1` (centres unmarked) [Compound 132] registered an IC50 of 0.5 to 5 µM.
Take `O=C(O)C[C@@H]1C[C@@H](c2ccc(Cl)cc2)CN(Cc2ccc(Cl)cc2)C1` [Compound 139, 2-((3S,5S)-1-(4-chlorobenzyl)-5-(4-chlorophenyl)piperidin-3-yl)acetic acid]: the IC50 in the test on Mutant TERT (Homo sapiens) lay in the range of 0.5 to 5 µM.
